Data reported in patent US20190284258A1, “HAEMADIPSA SYLVESTRIS ANTITHROMBOTIC PEPTIDE SYLVESTIN AND USE THEREOF” (priority 2016, published 2019).
Positions of bridges follow the written chain, without caps; N, C: chain ends. No end group written: not given here.

Tests used:
FXIIa = target: T1, FXIIa (Homo sapiens, UniProt P00748); assay: Enzyme kinetics, chromogenic substrate, FXIIa; format: biochemical; settings: sample 10 μM
T1 sequence (P00748 373-615 limits assumed): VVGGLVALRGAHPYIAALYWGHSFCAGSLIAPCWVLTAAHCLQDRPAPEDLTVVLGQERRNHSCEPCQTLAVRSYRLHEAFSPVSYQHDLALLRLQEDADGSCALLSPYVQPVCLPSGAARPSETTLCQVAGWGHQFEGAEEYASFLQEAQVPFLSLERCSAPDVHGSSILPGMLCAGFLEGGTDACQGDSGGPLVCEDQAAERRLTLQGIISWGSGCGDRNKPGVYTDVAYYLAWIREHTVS
Protocol: (§1) In a 96-well plate, 10 μL of the sample and 10 μL of FXIIa with a final concentration of 0.2 μM were mixed in 40 μL of buffer (100 mM NaCl, 50 mM Tris-HCl (pH 8.0), 5 mM CaCl2), allowed to stand at room temperature for 5 min. A mixture of 30 μL of buffer and 10 μL of chromogenic substrate with a final concentration of 0.04 mM was added to each well, the final volume was 100 μL. The kinetics of the coagulation reaction was measured using an Epoch (BioTek) microplate reader and GEN CHS 1.09 software, OD 405 nm, 20 min, with 47 s intervals. The concentration of the sample was 10 μM.

plasminogen = assay: Enzyme kinetics, plasminogen; format: biochemical; settings: sample 10 μM
kallikrein = assay: Enzyme kinetics, kallikrein; format: biochemical
Protocol: [Worded in the source for another target; this target is reported under the same test.] as §1

thrombin = thrombin (Homo sapiens, UniProt P00734); assay: Enzyme kinetics, thrombin; format: biochemical; settings: sample 10 μM
normal plasma = assay: PT experiment; settings: OD 650 nm
Protocol: (§2) The APTT reagent was equilibrated to room temperature and the APTT reagent was mixed by gentle inversion; 50 μL of the reagent, 50 μL of normal plasma and 5 μL of the sample were mixed and incubated in a 37° C. water bath for 3 min; 50 μL of pre-warmed CaCl2 solution was added, mixed immediately; the OD 650 nm was detected with a microplate reader. PT experiment: prothrombin reagent was pre-warmed at 37° C. for 15 min; 50 μL of normal plasma and 5 μL of the sample were incubated in a 37° C. water bath for 3 min; 100 μL of pre-warmed prothrombin reagent was added, mixed immediately; OD 650 nm was detected with a microplate reader.

[1] = test system: endogenous coagulation pathway (normal plasma); assay: APTT experiment; settings: OD 650 nm
Protocol: as §2

[2] = test system: cerebral ischemia and reperfusion injury; assay: Acute cerebral ischemic intraluminal thread model; format: in vivo, Kunming mice; settings: 1, 3, 5 mg/kg i.v. tail vein; 1 h ischemia, assessed at 24 h
tail thrombosis = assay: Carrageenan-induced rat tail thrombosis model; format: in vivo, Kunming mice; settings: for effect on tail thrombosis (average length of thrombus) compared with control group: each time point 12, 24, 36, 48 h, Sylvestin 2 and 4 mg/kg, heparin sodium 500 U/mouse, t-test p<0.05
Protocol: [Worded in the source for another organism; this organism is reported under the same test.] Kunming mice were used as experimental animals, body weight 25 to 30 g (provided by the Experimental Animal Center of Kunming Medical College). After one week of housing, they were randomly divided into groups (n=6), half male and half female. One group was a physiological saline control group, the sample groups were Sylvestin synthesized in Example 2 at a dose of 2 mg/kg and 4 mg/kg, respective, and the positive control was given heparin sodium (Beijing Dingguo Changsheng Biotechnology Co., Ltd.), 500 U/mouse. 30 minutes after tail vein administration, carrageenan (carrageenan, type I, Sigma, dissolved in physiological saline to a concentration of 1%) was injected from the abdomen of the mice at a dose of 60 mg/kg, since the thrombosis rate was >90% in a low temperature environment, the housing temperature was set at 17.5° C. After 12, 24, 36, and 48 h, the average length of thrombus was determined according to the color change of the tail skin. Referring to FIG. 1, the average length of thrombus in each group increased with time. […] Data processing was Graphpad Prime 5, data mean±SD, t-test (*p<0.05).

[3] = Isoelectric focusing electrophoresis; format: physicochemical
Protocol: 3.3 The purity of the purified Haemadipsa sylvestris antithrombotic peptide was determined by HPLC, the molecular weight was determined by fast atom bombardment mass spectrometry, the isoelectric point was determined by isoelectric focusing electrophoresis, and the amino acid sequence was determined by automatic amino acid sequencer.

FXa = FXa (Homo sapiens, UniProt P00742); assay: Enzyme kinetics, FXa; format: biochemical; settings: sample 10 μM
FXa, sequence (P00742 235-488 limits assumed): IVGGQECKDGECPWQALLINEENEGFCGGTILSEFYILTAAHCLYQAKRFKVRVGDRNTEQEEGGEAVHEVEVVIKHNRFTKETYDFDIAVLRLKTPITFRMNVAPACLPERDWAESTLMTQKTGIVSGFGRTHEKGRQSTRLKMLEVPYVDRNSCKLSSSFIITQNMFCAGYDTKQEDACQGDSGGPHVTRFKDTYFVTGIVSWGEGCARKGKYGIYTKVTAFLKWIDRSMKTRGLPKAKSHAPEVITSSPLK
FXa, sequence (P00742 41-179 partner limits assumed): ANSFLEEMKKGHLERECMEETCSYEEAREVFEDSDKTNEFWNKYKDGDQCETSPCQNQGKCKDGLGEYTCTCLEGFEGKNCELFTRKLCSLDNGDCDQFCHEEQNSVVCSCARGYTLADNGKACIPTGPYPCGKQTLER

| Substance | inhibitory effect on FXIIa (FXIIa) | inhibitory effect on plasminogen (plasminogen) | Ki (kallikrein; read-out: inhibition constant on kallikrein) [nM] | inhibitory effect on kallikrein (kallikrein; sample 10 μM) | inhibitory effect on thrombin (thrombin) | effect in PT experiment (normal plasma) | effect in APTT experiment [1] | injury caused by cerebral ischemia and reperfusion (Bederson score, ischemic volume) [2] | inhibition rate against thrombus versus dose (tail thrombosis; 2 mg/kg and 4 mg/kg) | inhibition rate against thrombosis over time (tail thrombosis; 12 to 48 h) | change of length of thrombus from 12 h to 24 h (tail thrombosis) | inhibitory effect on thrombosis compared with control group after 48 h (tail thrombosis; 48 h, tail vein) | effect on tail thrombosis (average length of thrombus) compared with control group (tail thrombosis; tail vein) | isoelectric point [3] | inhibitory effect on FXa (FXa) |
| --- | --- | --- | --- | --- | --- | --- | --- | --- | --- | --- | --- | --- | --- | --- | --- |
| TSEPVCACPKMLFWVCGKDGETYTHPCIAKCHNVEVEHDGKCK (disulfide 6-31, 8-27, 16-42) [Sylvestin] | can inhibit | no inhibitory effect | 17.8 | can inhibit | no inhibitory effect | no effect | concentration-dependent effect | effectively alleviate the injury | increased as concentration increased | decreased over time | increased slightly | significant inhibitory effect | statistically significant | 6.28 | no inhibitory effect |
| heparin sodium [reference compound] | – | – | – | – | – | – | – | – | – | – | doubled | – | statistically significant | – | – |
